This note sets out measurements from a melting point compilation (Tetko et al.; mined from patent text by program, amines drawn as free bases though some values may be those of a salt).

A value given as a limit tells only on which side of the number the result lay.

By melting point is commonly meant the temperature of the solid-liquid transition.

Consider `O=C(NCCO)c1ccc(-c2cccc3cc(Cc4cccc(C(F)(F)F)c4)sc23)nc1`, for which the melting point lay within 160 to 161 °C.
Regarding `COc1cc(OC)nc(Oc2cccc(Cl)c2N)n1`, the melting point lay within 86 to 87 °C.
For the compound `NC(=O)c1cc(F)cc(-c2cccc3cc(Cc4cc(F)cc(Cl)c4)sc23)c1`, the melting point lay within 186 to 187 °C.
Take `Cc1c(C)c(C)c(C2C(=O)Oc3c2cc(C(C)(C)C)cc3C(C)(C)C)c(C)c1C` (stereo not drawn): the melting point lay in the range of 185 to 190 °C.
As for `CC(C)(C#N)c1c(Cl)cc(N)cc1Cl`, the melting point was 208 °C.
`CCCCc1ccc(N(Cc2ccc(N(C)C)cc2)C(=O)C2CCCc3c(O)cccc32)cc1` (stereo not drawn) had a melting point of 138 °C.
`CCOC(=O)CCCCCCc1ccc2ccccc2c1O`: the melting point lay within 41 to 42 °C.
On to `O=C(Nn1cnnc1)C1=NN(c2ccc(Cl)cc2Cl)C(c2ccc(Cl)cc2)C1` (stereo not drawn), for which the melting point was 134 to 138 °C.
Next, `CCCOc1ccccc1-c1nc(N)cc(=O)[nH]1`: 184 °C; `CC(C)CNS(=O)(=O)c1ccccc1CCOS(C)(=O)=O`: 106 to 108 °C; `CN(CCCCNC(=O)NCCCOc1cccc(CN2CCCCC2)c1)CCN(Cc1ccc(F)cc1)c1ccccn1`: 69 °C.
The compound `O=C1C2C=CC(O2)C(=O)N1c1ccccc1` gave a melting point of 150 to 152 °C.
Next, `O=[N+]([O-])c1cc(C(F)(F)F)ccc1C(Br)c1cnoc1C1CC1` (stereo not drawn): 146 °C; `CC(C)C1NC(=O)C(CSSCC2NC(=O)C(C(C)C)NC2=O)NC1=O` (stereo not drawn): 270 °C.
In the case of `CC(C)(C)NC(=O)C(NC(C)(C)C)=C1CCCC1` it was 80 to 83 °C.
`COc1ccc(Cn2c(N)c(NC(=O)C(C)C)c(=O)[nH]c2=O)cc1OC` had a melting point of 207 to 210 °C.
Consider `Cn1cc(C(N)=O)c(=O)c2sccc21`, for which the melting point lay within 255 to 258 °C.
`CCCCCCCCCCCC(=O)N[C@H](CC(=O)c1ccc(C)cc1)C(=O)OCC`: the melting point lay within 60 to 60.5 °C.
In the case of `CCCc1ccc(N2CCC(O)CC2)nn1` it was 138 to 140 °C; in that of `O=C(NCc1ccc(Cl)cc1)c1cn2c(CO)cc3cc(CN4CCOCC4)cc(c1=O)c32`, 210 to 212 °C; in that of `O=c1ccn2c(c1O)C(c1ccc(Cl)cc1)OCC2` (stereo not drawn), 211 to 214 °C.
Next, `CC(C)(C)OC(=O)Nc1ccc(-c2ccccc2)cc1NC(=O)CC(=O)c1sccc1Cl`: 165 °C; `CC1(C)C(c2ccncc2)=Nc2ccc(-c3ccc(=O)[nH]n3)cc21`: 305 to 307 °C.
On to `Cc1ccccc1OC(Cc1ccc(OCCN(C)c2nc3ccccc3o2)cc1)C(=O)O` (stereo not drawn), for which the melting point lay within 142 to 143 °C.
`Cc1cc(C#N)cc(-c2ccc3c(c2)C(C)(C)OC(=S)N3)c1` registered a melting point of 230 to 231 °C.
The compound `O=C(CN1C(=O)c2ccccc2C1=O)c1ccc(F)cc1` displayed a melting point of 140 to 144 °C.
In the case of `CCN(CC)c1cccc(N(CC)CC)c1C(=O)O` it was 112 to 114 °C; in that of `CC(C)c1ccc(C(=O)Cc2ccsc2)c(C(C)C)c1OS(N)(=O)=O`, 136 to 138 °C; in that of `CNC(=O)c1ccc(N2CCN(Cc3cnc4c(c3)[nH]c(=O)n3cccc43)CC2)c(C)c1`, 264 to 266 °C.
Take `COC(=O)Cn1c(C(=O)O)cc2cc(C)cc(C)c21`: the melting point was 221 to 223 °C.
For `COC(=O)[C@H](Cc1c[nH]c2ccccc12)NC(=O)CCC(=O)[C@H](Cc1ccccc1)NC(=O)c1ccccc1`, the melting point is 88 to 90 °C.
In turn, `COCC1CN(c2ccc3nc(C(O)CCCO)sc3c2)C(=O)O1` (stereo not drawn) showed a melting point of 137 to 138 °C.
As to `COc1ccc(-c2nc(CCl)nc3sc(C)c(C)c23)cc1OC`, the melting point was in the range of 117 to 118 °C.
With `CC(C)(C)c1cc(-n2nc3c(Br)ccc(Br)c3n2)c(O)c(C(C)(C)C)c1`, the melting point is 244 to 246 °C.
The compound `Clc1cc(C(Cl)(Cl)Cl)nc(C(Cl)(Cl)Cl)c1` returned a melting point of 101 to 102 °C.
On to `Cc1nc2ccc(OC(F)(F)F)cc2[nH]1`, for which the melting point lay within 135 to 137 °C.
Take `CC(C)c1cc(Oc2c(Cl)cc(C(F)(F)F)cc2Cl)n[nH]1`: the melting point was in the range of 98 to 101 °C.
Compound `CCCCCCCCc1ccc(NC(=O)Nc2ccc(S(N)(=O)=O)cc2)cc1` gave a melting point of 282 to 283 °C.
As for `O=C(c1c(F)cccc1F)N1CNCN(c2ccc(Oc3ccc(C(F)(F)F)cc3Cl)cc2F)C1=O`, the melting point lay within 135 to 137 °C.
As to `C#Cc1ccc(-c2nc(-c3ccccc3)nc(-c3ccc(C#C)cc3)n2)cc1`, the melting point turned out to be 215 °C.
In the case of `O=C(O)Cc1cccc(OCc2ccccc2)c1` it was 127 to 129 °C.
Take `COc1cccc(NC(=O)NC2CC(c3ccccc3)CC(Cc3ccccc3)N(CC(=O)OC(C)(C)C)C2=O)c1` (stereo not drawn): the melting point lay in the range of 95 to 105 °C.
Compound `CCC1=C(C)C(=C(C#N)C#N)C(C)=C(CC)O1` gave a melting point of 64 to 65 °C.
On to `CCOC(=O)c1cc(-c2ccccc2)oc1C(F)(F)F`, for which the melting point fell in the range of 44 to 45 °C.
Take `CCOC(=O)c1cc2c(O)nncc2nc1NC`: the melting point fell in the range of 290 to 292 °C.
In the case of `COC(=O)CCc1cc2cc(C(F)(F)F)ccc2n1S(=O)(=O)c1ccc2ncsc2c1` it was 130 to 132 °C; in that of `CS(=O)(=O)Nc1ccc2nc(CCl)ccc2c1`, 160 to 162 °C.
On to `COC(=O)COc1cccc2c(CNC(C)=O)coc12`, for which the melting point fell in the range of 139 to 140 °C.
Next, `COC(=O)c1ccc(Cl)c(C#N)c1`: 193 °C.
In the case of `CC[C@H]1[C@H](O)[C@@H](C)C(=O)N1c1ccc(C#N)c(Cl)c1` it was 120 to 123 °C; in that of `CCCN1CC(c2cccc(O)c2)CC1C` (stereo not drawn), 123 to 124 °C; in that of `COc1ccc(N2CCN(CCC3OCCc4c(C(N)=O)cccc43)CC2)cc1` (stereo not drawn), 185 to 186 °C.
Compound `CC(CS)C(=O)N(CC(=O)O)CC1CCCO1` (stereo not drawn) yielded a melting point of 128 to 130 °C.
As to `Fc1ccc(-c2cc3[nH]ccn3n2)cc1`, the melting point was in the range of 225 to 227 °C.
In turn, `CCCc1c(OCC(O)COc2ccc3c(=O)cc(C(=O)O)sc3c2CCC)ccc(C(C)=O)c1O` (stereo not drawn) yielded a melting point of 280 to 281 °C.
As for `COc1cc(COc2nc(-c3ccccc3)ncc2CO)ccc1OCc1nc(-c2ccco2)oc1C`, the melting point lay in the range of 150 to 151 °C.
With `COc1ccc(-c2cnc3ccc(-c4nnc(SCc5cccc(C(F)(F)F)c5)o4)cn23)cc1`, the melting point was in the range of 104 to 105 °C.
With `C[C@@H](SC(CO)CO)[C@](O)(Cn1cncn1)c1ccccc1F`, the melting point fell in the range of 121 to 123 °C.
In turn, `COC(=O)c1cc2c(C)ccc(C)c2n1OC` returned a melting point of 90 to 91 °C.
In the case of `O=[N+]([O-])c1ccc(C=CC=CC=CC=Cc2ccc([N+](=O)[O-])cc2)cc1` it was 238 to 240 °C; in that of `S=C1Nc2ccccc2C1(c1c[nH]c2ccccc12)C1CNc2ccccc21` (stereo not drawn), over 260 °C; in that of `CCCn1c(=O)c2[nH]c(C3CCCC3)nc2n(CCc2ccc(NC(=O)C(C)C)cc2)c1=O`, over 270 °C.
In the case of `CCCCC1(O)C(C)=CC(=O)CC1(C)C` (stereo not drawn) it was 90 to 93 °C; in that of `COc1ccc(CC(NC(C)=O)C(=O)O)cc1` (racemic), 144 to 146 °C; in that of `Cc1nc(Cl)c2nnn(-c3ccc(C(C)C)cc3Br)c2n1`, 72 to 74 °C.
The compound `CSC(CC(=O)O)c1ccccc1` (stereo not drawn) gave a melting point of 75 to 77 °C.
As to `CC(=O)Nc1cnc2cccc(Oc3cc(-c4ccc(C(F)(F)F)cc4)ncn3)c2n1`, the melting point came to 237 °C.
Compound `CC1SC(=O)NN=C1c1ccc2c(c1)C(=NNC(=O)c1ccccn1)C(=O)N2` (stereo not drawn) yielded a melting point of over 300 °C.
`COc1ccc2c3ccc(OC)cc3n(CCNC(=O)CS(C)(=O)=O)c2c1` gave a melting point of 175 to 177 °C.
`COc1ccc2cc(-c3ncn[nH]3)ccc2n1` yielded a melting point of 198 to 200 °C.
`CN(C)C(=O)Nc1ccc2c(c1)C(CN1CCC(c3ccc(F)cc3)CC1)CC2` (stereo not drawn) returned a melting point of 141 to 144 °C.
Consider `O=c1oc2c(c(O)c1Sc1ccc(Cl)cc1)c(=O)n(Cc1ccccc1)c1ccccc21`, for which the melting point fell in the range of 273 to 275 °C.
Compound `Cn1c(=O)oc(=O)c2ccc(F)cc21` displayed a melting point of 158 to 160 °C.
For the compound `O=C(NCc1ccc(Cl)cc1)c1cn(-c2ccccn2)c2oc(CCl)cc2c1=O`, the melting point lay within 224 to 227 °C.
`Cc1ccc(S(=O)(=O)c2cc3c(c(S(=O)(=O)NCCc4ccccc4F)c2)CCCC3)cc1`: the melting point fell in the range of 55 to 60 °C.
With `COc1cc2c(cc1OC)-c1nccc3cccc(c13)C2=O`, the melting point was 250 °C.
As for `c1ccc(OCC2CCN(CCCOc3cccc4[nH]ccc34)CC2)cc1`, the melting point fell in the range of 118 to 119 °C.
In turn, `COC(=O)C(C(=O)OC)c1cccc2c1NC(=O)C2=O` returned a melting point of 137 to 140 °C.
Compound `COC(=O)CC1=C(C)C(O)c2ccc(C#N)cc21` (stereo not drawn) registered a melting point of 70 to 75 °C.
In turn, `c1ccc(C2CCNCc3ccccc3O2)cc1` (stereo not drawn) had a melting point of 73 to 74 °C.
`O=[N+]([O-])c1ccc(Sc2ccccc2)cc1OCc1ccccc1` registered a melting point of 77 to 79 °C.
Next, `COc1cc(NC(=O)OC(C)CN2CCC(c3nn(C)c4cc(F)ccc34)CC2)cc(OC)c1OC` (stereo not drawn): 74 to 77 °C; `CC(C)(C)OC(=O)Nc1ccc(-c2ccc(F)cc2)cc1NC(=O)CC(=O)c1sccc1Cl`: 168 to 169 °C.
As for `CN(CCOc1cccc(Cl)c1CN)Cc1ccccc1`, the melting point was 85 °C.
For `COc1cc2c(cc1OC)CCCC(C(=O)N1CCN(Cc3cc(OC)c(OC)c(OC)c3)CC1CCCO)=C2` (stereo not drawn), the melting point lay within 144 to 145 °C.
Next, `O=C(O)C1(NS(=O)(=O)c2ccc3oc4cc(Br)ccc4c3c2)CCCC1`: 177 to 178 °C; `Cc1c(C)c(N2CCN(c3ccc(C(N)=O)cc3)CC2)c(C)c2c1OC(C)C2` (stereo not drawn): 240 to 245 °C; `O=C(NO)c1cnc(N2CCC(CNS(=O)(=O)c3ccc(C(=O)Nc4ccc(Cl)c(-c5ccccn5)c4)c(Cl)c3)CC2)nc1`: 172 to 173 °C.
